Laboratory results from US20230117470A1, “SUBSTITUTED PYRAZOLE COMPOUNDS AS TOLL RECEPTOR INHIBITORS” (BRISTOL-MYERS SQUIBB COMPANY, priority 2019, published 2023).

Experiments:
Assay type in all cases: cell-based
human TLR9 = target: T1, human TLR9 (Homo sapiens, UniProt Q9NR96); test: TLR9 inhibition reporter assay (HEK-Blue cells, SEAP reporter, ODN2006 stimulation); details: HEK-Blue cells overexpressing human TLR9, SEAP reporter, ODN2006 5 nM
T1 construct: host or cells: HEK-Blue cells
T1 sequence (Q9NR96 26-1032): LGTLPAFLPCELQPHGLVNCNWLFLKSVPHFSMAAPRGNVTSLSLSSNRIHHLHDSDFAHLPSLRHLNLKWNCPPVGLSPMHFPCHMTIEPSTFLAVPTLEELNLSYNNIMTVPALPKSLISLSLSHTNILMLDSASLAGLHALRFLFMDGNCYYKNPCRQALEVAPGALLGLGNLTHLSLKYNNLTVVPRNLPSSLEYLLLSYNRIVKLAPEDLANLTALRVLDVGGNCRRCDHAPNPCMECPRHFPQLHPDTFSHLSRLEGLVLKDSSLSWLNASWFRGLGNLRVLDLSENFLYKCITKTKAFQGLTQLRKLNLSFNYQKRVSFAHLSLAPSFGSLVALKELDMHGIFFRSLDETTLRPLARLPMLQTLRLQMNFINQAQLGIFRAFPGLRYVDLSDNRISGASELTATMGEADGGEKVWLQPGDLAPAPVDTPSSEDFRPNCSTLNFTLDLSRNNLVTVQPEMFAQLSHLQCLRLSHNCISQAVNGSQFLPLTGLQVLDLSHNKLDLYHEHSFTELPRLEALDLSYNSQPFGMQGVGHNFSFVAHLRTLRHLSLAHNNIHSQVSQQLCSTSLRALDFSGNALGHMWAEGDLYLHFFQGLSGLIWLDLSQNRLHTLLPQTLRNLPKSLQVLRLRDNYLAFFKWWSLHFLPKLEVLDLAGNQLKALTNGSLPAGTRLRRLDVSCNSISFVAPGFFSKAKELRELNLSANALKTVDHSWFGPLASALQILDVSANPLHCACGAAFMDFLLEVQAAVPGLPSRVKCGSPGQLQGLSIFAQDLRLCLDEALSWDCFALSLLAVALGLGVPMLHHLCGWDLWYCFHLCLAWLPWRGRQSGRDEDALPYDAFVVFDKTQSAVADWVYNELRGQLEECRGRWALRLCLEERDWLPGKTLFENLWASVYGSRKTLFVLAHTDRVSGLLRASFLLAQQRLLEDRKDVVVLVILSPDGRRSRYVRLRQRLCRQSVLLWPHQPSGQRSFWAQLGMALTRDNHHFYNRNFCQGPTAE
Outline: (§1)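 30 min RT cpd pre-incubation (0.05 nM–50 μM final dose response) → agonist: gardiquimod 7.5 μM / R848 15.9 μM / ODN2006 5 nM for TLR7/8/9 resp. → 22 h, 37° C → SEAP via detection medium. % inhibition vs agonist+DMSO and reference inhibitor controls.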

human TLR8 = target: T2, human TLR8 (Homo sapiens, UniProt Q9NR97); test: TLR8 inhibition reporter assay (HEK-Blue cells, SEAP reporter, R848 stimulation); details: HEK-Blue cells overexpressing human TLR8, SEAP reporter, R848 15.9 μM
T2 construct: host or cells: HEK-Blue cells
T2 sequence (Q9NR97 27-1041): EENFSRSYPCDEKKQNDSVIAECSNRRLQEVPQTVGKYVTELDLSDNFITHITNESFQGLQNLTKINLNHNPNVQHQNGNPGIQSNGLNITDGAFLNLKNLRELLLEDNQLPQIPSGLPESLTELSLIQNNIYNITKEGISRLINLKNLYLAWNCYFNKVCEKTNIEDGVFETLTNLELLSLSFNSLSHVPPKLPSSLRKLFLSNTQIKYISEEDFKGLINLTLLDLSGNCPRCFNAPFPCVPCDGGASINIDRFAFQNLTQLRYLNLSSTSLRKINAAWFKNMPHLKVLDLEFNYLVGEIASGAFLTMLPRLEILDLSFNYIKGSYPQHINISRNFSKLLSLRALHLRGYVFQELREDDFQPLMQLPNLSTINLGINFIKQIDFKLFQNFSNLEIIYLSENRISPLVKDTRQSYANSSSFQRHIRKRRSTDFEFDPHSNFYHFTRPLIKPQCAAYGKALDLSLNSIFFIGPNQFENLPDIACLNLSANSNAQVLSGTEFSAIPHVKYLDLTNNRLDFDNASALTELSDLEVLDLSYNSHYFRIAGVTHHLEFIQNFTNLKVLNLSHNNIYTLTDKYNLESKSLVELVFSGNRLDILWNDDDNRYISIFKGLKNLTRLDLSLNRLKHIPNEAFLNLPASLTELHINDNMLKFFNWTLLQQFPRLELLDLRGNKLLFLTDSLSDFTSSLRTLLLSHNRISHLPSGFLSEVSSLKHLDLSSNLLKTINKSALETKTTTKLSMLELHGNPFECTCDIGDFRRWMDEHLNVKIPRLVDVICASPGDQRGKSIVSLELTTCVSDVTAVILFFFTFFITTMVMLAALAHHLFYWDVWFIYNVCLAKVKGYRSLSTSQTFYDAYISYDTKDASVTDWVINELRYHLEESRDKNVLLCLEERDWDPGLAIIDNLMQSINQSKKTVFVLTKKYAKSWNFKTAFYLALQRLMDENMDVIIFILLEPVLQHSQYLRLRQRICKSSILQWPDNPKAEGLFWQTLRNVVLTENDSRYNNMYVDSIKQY
Outline: as §1

human TLR7 = target: T3, human TLR7 (Homo sapiens, UniProt Q9NYK1); test: TLR7 inhibition reporter assay (HEK-Blue cells, SEAP reporter, gardiquimod stimulation); details: HEK-Blue cells overexpressing human TLR7, SEAP reporter, gardiquimod 7.5 μM
T3 construct: host or cells: HEK-Blue cells
T3 sequence (Q9NYK1 27-1049): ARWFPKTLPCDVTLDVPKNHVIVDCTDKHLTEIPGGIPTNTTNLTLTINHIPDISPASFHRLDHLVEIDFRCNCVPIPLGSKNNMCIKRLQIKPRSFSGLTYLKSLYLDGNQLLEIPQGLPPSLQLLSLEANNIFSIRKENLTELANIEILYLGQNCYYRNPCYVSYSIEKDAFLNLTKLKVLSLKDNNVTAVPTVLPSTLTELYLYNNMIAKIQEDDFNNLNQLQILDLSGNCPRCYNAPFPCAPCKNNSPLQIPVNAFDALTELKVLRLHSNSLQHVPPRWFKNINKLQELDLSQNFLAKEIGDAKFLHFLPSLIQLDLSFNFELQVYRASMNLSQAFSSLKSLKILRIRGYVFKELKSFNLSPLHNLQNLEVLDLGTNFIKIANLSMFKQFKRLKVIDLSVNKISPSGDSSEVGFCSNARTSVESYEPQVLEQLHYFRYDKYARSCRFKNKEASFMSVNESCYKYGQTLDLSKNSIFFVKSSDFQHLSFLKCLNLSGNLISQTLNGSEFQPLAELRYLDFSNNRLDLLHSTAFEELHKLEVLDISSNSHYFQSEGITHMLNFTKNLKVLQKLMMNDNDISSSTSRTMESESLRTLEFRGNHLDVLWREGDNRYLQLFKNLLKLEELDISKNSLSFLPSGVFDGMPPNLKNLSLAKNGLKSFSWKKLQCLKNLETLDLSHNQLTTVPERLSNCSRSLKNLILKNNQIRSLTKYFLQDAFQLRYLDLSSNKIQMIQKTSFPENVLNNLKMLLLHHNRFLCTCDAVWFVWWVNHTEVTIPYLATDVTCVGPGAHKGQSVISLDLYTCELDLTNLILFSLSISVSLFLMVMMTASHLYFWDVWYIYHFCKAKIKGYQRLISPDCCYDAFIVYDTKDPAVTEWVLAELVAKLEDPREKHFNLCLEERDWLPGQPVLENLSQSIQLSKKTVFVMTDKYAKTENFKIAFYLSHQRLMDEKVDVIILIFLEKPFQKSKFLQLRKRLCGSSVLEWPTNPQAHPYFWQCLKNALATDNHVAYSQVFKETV
Outline: as §1

SMILES | IC50 (human TLR9) [nM] | IC50 (human TLR8) [nM] | IC50 (human TLR7) [nM]
Cc1cc(-c2[nH]nc(C(=O)N[C@H]3CC[C@H](N(CC4CC4)CC4CC4)CC3)c2C(C)C)cn2ncnc12 [Example 103] | 3600 | 3.46 | 48
Cc1cc(-c2[nH]nc(C(=O)N[C@H]3CCCN(C4COC4)C3)c2C(C)C)cn2ncnc12 [Example 166] | 383 | 0.87 | 0.88
CCN(CCC#N)C(=O)c1n[nH]c(-c2cc(C)c3ncnn3c2)c1C(C)C [Example 20] | 16100 | 8.06 | 3.69
Cc1cc(-c2[nH]nc(C(=O)NC3CCNCC3)c2C(C)C)cn2ncnc12 [Example 43, 4-isopropyl-5-(8-methyl-[1,2,4]triazolo[1,5-a]pyridin-6-yl)-N-(piperidin-4-yl)-1H-pyrazole-3-carboxamide] | > 50000 | 5.22 | 2.54
Cc1cc(-c2[nH]nc(C3CCC(N4CCC(N(C)C)CC4)CC3)c2C(C)C)cn2ncnc12 (single isomer, unassigned) [Example 292] | 7520 | 0.46 | 3.18
Cc1cc(-c2[nH]nc(C(=O)N[C@H]3CC[C@@H](NC(C)C(C)C)CC3)c2C(C)C)cn2ncnc12 (stereo partly drawn) [Example 99] | 3610 | 36.7 | 1.19
Cc1cc(-c2[nH]nc(-c3ncc4c(n3)CCN(C(C)C)C4)c2C(C)C)cn2ncnc12 [Example 250] | 43300 | 43.6 | 46.8
Cc1cc(-c2[nH]nc(-c3cnc(NC(C)C)cn3)c2C(C)C)cn2ncnc12 [Example 241] | > 50000 | 3.19 | 8.06
COc1cc(-c2[nH]nc(-c3cnc(C4CCN(CC5CC5)CC4)cn3)c2C(C)C)cn2ncnc12 [Example 378] | > 50000 | 12.2 | 29.4
COc1cc(-c2[nH]nc(-c3cnc(C4CCN(CC(=O)N(C)C)CC4)cn3)c2C(C)C)cn2ncnc12 [Example 401] | 13500 | 35.7 | 36.9
Cc1cc(-c2[nH]nc(C(=O)NC3CCN(CCC(F)(F)F)CC3)c2C(C)C)cn2ncnc12 [Example 69, 4-isopropyl-5-(8-methyl-[1,2,4]triazolo[1,5-a]pyridin-6-yl)-N-(1-(3,3,3-trifluoropropyl)piperidin-4-yl)-1H-pyrazole-3-carboxamide] | 6320 | 35.6 | 4.17
Cc1cc(-c2[nH]nc(C(=O)N[C@H]3CC[C@@H](NCC(C)(C)C)CC3)c2C(C)C)cn2ncnc12 [Example 89] | 4100 | 18.9 | 1.48
Cc1cc(-c2[nH]nc(C(=O)NC[C@@H]3CCCN3)c2C(C)C)cn2ncnc12 [Example 51] | 8800 | 1.03 | 1.59
Cc1cc(-c2[nH]nc(C(=O)NC3CCN(CCN(C)C)CC3)c2C(C)C)cn2ncnc12 [Example 83] | > 50000 | 238 | 6.33
Cc1cc(-c2[nH]nc(-c3ccc(N4CCNCC4)cc3)c2C(C)C)cn2ncnc12 [Example 406] | > 50000 | 142 | 2.74
Cc1cc(-c2[nH]nc(-c3ccc(C4CCN(C(C)C)CC4)nc3)c2C(C)C)cn2ncnc12 [Example 361] | 45600 | > 3130 | 719
Cc1cc(-c2[nH]nc(C(=O)N[C@H]3CC[C@@H](NC4CCOCC4)CC3)c2C(C)C)cn2ncnc12 [Example 98] | 2980 | 1.37 | 0.12
Cc1cc(-c2[nH]nc(-c3ccc(NC(C)C)nc3)c2C(C)C)cn2ncnc12 [Example 240] | 6230 | 2.82 | 3.72
Cc1cc(-c2[nH]nc(C3CCC(NCC4(C)COC4)CC3)c2C(C)C)cn2ncnc12 (single isomer, unassigned) [Example 281] | 42600 | 0.45 | 9.49
Cc1cc(-c2[nH]nc(-c3ccc(C4CCN(CC(C)(C)C)CC4)cn3)c2C(C)C)cn2ncnc12 [Example 373] | 42100 | 34.5 | 81.9
COc1cc(-c2[nH]nc(-c3ccc(C4CCNCC4)cn3)c2C(C)C)cn2ncnc12 [Example 339, 6-(4-isopropyl-3-(5-(piperidin-4-yl)pyridin-2-yl)-1H-pyrazol-5-yl)-8-methoxy-[1,2,4]triazolo[1,5-a]pyridine] | 36600 | 3.86 | 19.9
COc1c(C)c(-c2[nH]nc(-c3ccc(C4CCNCC4)cn3)c2C(C)C)cn2ncnc12 [Example 346] | 19200 | 7.94 | 6.3
CCCN1CC(c2ccc(-c3n[nH]c(-c4cc(C)c5ncnn5c4)c3C(C)C)cc2)C1 [Example 326] | 17600 | 7.97 | 5.42
